# Experimental data reported in PubChem BioAssay (NCI).
#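 Following 48 hours of exposure in 96-well plates, responses at five concentrations were used to interpolate endpoints linearly. TGI marks complete inhibition of growth.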
# Key:
# Assay in all cases: NCI tumour cell line growth inhibition, 48 h
# DLD-1 colon = system: DLD-1 colon
# M19-MEL melanoma = system: M19-MEL melanoma
# KM20L2 colon = system: KM20L2 colon
# DMS 273 small cell lung = system: DMS 273 small cell lung
# KM12 colon = system: KM12 colon
# SNB-19 CNS = system: SNB-19 CNS
# SF-295 CNS = system: SF-295 CNS
# TK-10 renal = system: TK-10 renal
# OVCAR-4 ovarian = system: OVCAR-4 ovarian
# HCT-116 colon = system: HCT-116 colon
# SR leukemia = system: SR leukemia
structure (smiles),measurement,setting,value
C=C1CC2(CCS(=O)(=O)c3ccccc32)OC1=O (stereo not given),TGI,DLD-1 colon,25.9 µM
same,TGI,M19-MEL melanoma,37.2 µM
same,TGI,KM20L2 colon,28.6 µM
same,TGI,DMS 273 small cell lung,30.5 µM
same,TGI,KM12 colon,37.8 µM
same,TGI,SNB-19 CNS,22.8 µM
same,TGI,SF-295 CNS,45 µM
same,TGI,TK-10 renal,26.7 µM
same,TGI,OVCAR-4 ovarian,26.7 µM
Cc1ccc(C(=O)NCCN(C)C)c2nc3ccccc3cc12,TGI,DLD-1 colon,> 100 µM
same,TGI,M19-MEL melanoma,> 100 µM
same,TGI,HCT-116 colon,10.9 µM
same,TGI,KM20L2 colon,6 µM
same,TGI,DMS 273 small cell lung,2 µM
same,TGI,KM12 colon,6.91 µM
same,TGI,SNB-19 CNS,13.6 µM
same,TGI,SF-295 CNS,3.8 µM
same,TGI,TK-10 renal,12.2 µM
same,TGI,OVCAR-4 ovarian,> 100 µM
O=C1C(=O)N(c2ccc(Cl)cc2)C(=O)C(=Nc2cccc3c(=O)[nH][nH]c(=O)c23)C1c1nc2ccccc2o1 (stereo not given),TGI,DLD-1 colon,> 100 µM
same,TGI,M19-MEL melanoma,> 100 µM
same,TGI,HCT-116 colon,> 100 µM
same,TGI,KM20L2 colon,> 100 µM
same,TGI,DMS 273 small cell lung,> 100 µM
same,TGI,KM12 colon,> 100 µM
same,TGI,SNB-19 CNS,> 100 µM
same,TGI,SF-295 CNS,> 100 µM
same,TGI,SR leukemia,> 100 µM
same,TGI,TK-10 renal,> 100 µM
same,TGI,OVCAR-4 ovarian,> 100 µM
Cc1ccc(Sc2ccccc2N)cc1,TGI,M19-MEL melanoma,> 100 µM
same,TGI,HCT-116 colon,> 100 µM
same,TGI,KM20L2 colon,> 100 µM
same,TGI,DMS 273 small cell lung,> 100 µM
same,TGI,KM12 colon,> 100 µM
same,TGI,SNB-19 CNS,> 100 µM
same,TGI,SF-295 CNS,> 100 µM
same,TGI,TK-10 renal,> 100 µM
same,TGI,OVCAR-4 ovarian,> 100 µM
CCCCCCCCCCOC(=O)NCCC,TGI,DLD-1 colon,> 100 µM
same,TGI,M19-MEL melanoma,> 100 µM
same,TGI,KM20L2 colon,62.2 µM
same,TGI,DMS 273 small cell lung,54.9 µM
same,TGI,KM12 colon,> 100 µM
same,TGI,SNB-19 CNS,> 100 µM
same,TGI,SF-295 CNS,> 100 µM
same,TGI,TK-10 renal,> 100 µM
same,TGI,OVCAR-4 ovarian,> 100 µM
COc1cccc(C2SCc3nc4ccccc4n32)c1 (stereo not given),TGI,DLD-1 colon,> 100 µM
same,TGI,M19-MEL melanoma,> 100 µM
same,TGI,HCT-116 colon,> 100 µM
same,TGI,DMS 273 small cell lung,> 100 µM
same,TGI,KM12 colon,> 100 µM
same,TGI,SNB-19 CNS,> 100 µM
same,TGI,SF-295 CNS,> 100 µM
same,TGI,TK-10 renal,55.1 µM
same,TGI,OVCAR-4 ovarian,> 100 µM
O=C(O)CN(c1ccc(F)cc1)S(=O)(=O)c1ccccc1,TGI,DLD-1 colon,> 100 µM
same,TGI,M19-MEL melanoma,> 100 µM
same,TGI,KM20L2 colon,> 100 µM
same,TGI,DMS 273 small cell lung,> 100 µM
same,TGI,KM12 colon,> 100 µM
same,TGI,SNB-19 CNS,> 100 µM
same,TGI,SF-295 CNS,> 100 µM
same,TGI,TK-10 renal,> 100 µM
same,TGI,OVCAR-4 ovarian,> 100 µM
Cc1ccc(S(=O)(=O)OCCOCCOCCOCCOCCOS(=O)(=O)c2ccc(C)cc2)cc1,TGI,DLD-1 colon,> 100 µM
same,TGI,M19-MEL melanoma,> 100 µM
same,TGI,HCT-116 colon,> 100 µM
same,TGI,KM20L2 colon,> 100 µM
same,TGI,DMS 273 small cell lung,> 100 µM
same,TGI,KM12 colon,> 100 µM
same,TGI,SNB-19 CNS,> 100 µM
same,TGI,SF-295 CNS,> 100 µM
same,TGI,SR leukemia,90.9 µM
same,TGI,TK-10 renal,> 100 µM
same,TGI,OVCAR-4 ovarian,> 100 µM
N#CCc1nnc(N)o1,TGI,DLD-1 colon,> 100 µM
same,TGI,M19-MEL melanoma,> 100 µM
same,TGI,HCT-116 colon,> 100 µM
same,TGI,KM20L2 colon,> 100 µM
same,TGI,DMS 273 small cell lung,> 100 µM
same,TGI,KM12 colon,> 100 µM
same,TGI,SNB-19 CNS,> 100 µM
same,TGI,SF-295 CNS,> 100 µM
same,TGI,SR leukemia,> 100 µM
same,TGI,TK-10 renal,> 100 µM
CC(C)=NNC(=S)NC12CC3CC(CC(C3)C1)C2,TGI,M19-MEL melanoma,> 100 µM
same,TGI,HCT-116 colon,> 100 µM
same,TGI,KM20L2 colon,> 100 µM
same,TGI,DMS 273 small cell lung,> 100 µM
same,TGI,KM12 colon,> 100 µM
same,TGI,SNB-19 CNS,> 100 µM
same,TGI,SF-295 CNS,> 100 µM
same,TGI,SR leukemia,> 100 µM
same,TGI,TK-10 renal,> 100 µM
same,TGI,OVCAR-4 ovarian,> 100 µM
Cc1ccc(C2=Nc3ccccc3S(=O)C(c3ccc4c(c3)OCO4)C2)cc1 (stereo not given),TGI,DLD-1 colon,30.7 µM
same,TGI,M19-MEL melanoma,> 100 µM
same,TGI,HCT-116 colon,37.3 µM
same,TGI,KM20L2 colon,33 µM
same,TGI,DMS 273 small cell lung,> 100 µM
same,TGI,KM12 colon,57.8 µM
same,TGI,SNB-19 CNS,> 100 µM
same,TGI,SF-295 CNS,> 100 µM
same,TGI,SR leukemia,> 100 µM
same,TGI,TK-10 renal,> 100 µM
same,TGI,OVCAR-4 ovarian,> 100 µM
O=C(O)c1c2c(cc3c(=O)cc(-c4ccccc4)oc13)CCCC2,TGI,DLD-1 colon,> 100 µM
same,TGI,HCT-116 colon,> 100 µM
same,TGI,KM20L2 colon,> 100 µM
same,TGI,DMS 273 small cell lung,> 100 µM
same,TGI,KM12 colon,> 100 µM
same,TGI,SNB-19 CNS,> 100 µM
same,TGI,SF-295 CNS,> 100 µM
same,TGI,TK-10 renal,> 100 µM
same,TGI,OVCAR-4 ovarian,> 100 µM
c1ccc2c(CNCCCCCCCCNCc3cccc4ccccc34)cccc2c1,TGI,DLD-1 colon,4.07 µM
same,TGI,M19-MEL melanoma,3.12 µM
same,TGI,HCT-116 colon,3.05 µM
same,TGI,KM20L2 colon,3.22 µM
same,TGI,DMS 273 small cell lung,3.68 µM
same,TGI,KM12 colon,3.24 µM
same,TGI,SF-295 CNS,3.32 µM
same,TGI,TK-10 renal,5.53 µM
same,TGI,OVCAR-4 ovarian,5.28 µM
O=[N+]([O-])C=C1c2ccccc2-c2ccccc21,TGI,DLD-1 colon,7.71 µM
same,TGI,HCT-116 colon,17.5 µM
same,TGI,KM20L2 colon,34.5 µM
same,TGI,KM12 colon,31.7 µM
same,TGI,SNB-19 CNS,51.8 µM
same,TGI,SF-295 CNS,33.5 µM
same,TGI,SR leukemia,28.5 µM
same,TGI,TK-10 renal,32.3 µM
same,TGI,OVCAR-4 ovarian,28.2 µM
CCOC(=O)CN(c1ccccc1)c1nc(=[N+](C)C)ss1,TGI,DLD-1 colon,> 100 µM
same,TGI,M19-MEL melanoma,34 µM
same,TGI,HCT-116 colon,> 100 µM
same,TGI,KM20L2 colon,> 100 µM
same,TGI,DMS 273 small cell lung,33.8 µM
same,TGI,SNB-19 CNS,> 100 µM
same,TGI,SR leukemia,41.9 µM
same,TGI,TK-10 renal,> 100 µM
same,TGI,OVCAR-4 ovarian,32.7 µM
COc1cc(O)c2c(c1)C(=O)C1=C(C2=O)C(O)C[C@@](C)(O)C1 (stereo not given in full),TGI,DLD-1 colon,2.28 µM
same,TGI,M19-MEL melanoma,1.66 µM
same,TGI,HCT-116 colon,2.22 µM
same,TGI,KM20L2 colon,11.6 µM
same,TGI,DMS 273 small cell lung,5.04 µM
same,TGI,KM12 colon,8.91 µM
same,TGI,SNB-19 CNS,14.1 µM
same,TGI,SF-295 CNS,7.32 µM
same,TGI,SR leukemia,6.14 µM
same,TGI,TK-10 renal,6.14 µM
same,TGI,OVCAR-4 ovarian,3.01 µM
